Laboratory results from patent US6706709B2, “Indolinone derivatives as protein kinase/phosphatase inhibitors” (Sugen, Inc., priority 2000, dated 2004).

Columns and labels:
EGF Receptor = molecular target: T1, EGF Receptor (Homo sapiens, UniProt P00533); test: bio EGF (EGF Receptor ELISA); format: biochemical
T1 construct: expressed in transfected cells; host or cells: NIH 3T3/C7 (mouse fibroblasts engineered to express human EGF-R)
Method in brief: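 Cells engineered to express human EGFR, seeded in 0.5% serum for ~40 h, then exposed to drug (stock diluted to 1:200 final, 1% DMSO) before 5 min EGF stimulation at 25 nM final. Lysates captured on anti-EGFR-coated plates, and phosphotyrosine detected by anti-pTyr/HRP ELISA at 410 nm. Percent inhibition calculated relative to control wells after negative-control subtraction.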

GST-Flk1 = GST-Flk1 (UniProt P35918); test: GST-FLK-1 bioassay (bio flkGST); format: biochemical
Method in brief: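 ELISA with Sf9-expressed GST-Flk1cd (5 ng/well) phosphorylating plate-coated poly(Glu,Tyr) 4:1 in Hepes pH 7.5 with MnCl2 and ATP (2 μM as 4× stock), 15 min at room temperature; EDTA stop. Phosphotyrosine detected with PY99-HRP and ABTS at 410 nm.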

T1 sequence (P00533 25-1210): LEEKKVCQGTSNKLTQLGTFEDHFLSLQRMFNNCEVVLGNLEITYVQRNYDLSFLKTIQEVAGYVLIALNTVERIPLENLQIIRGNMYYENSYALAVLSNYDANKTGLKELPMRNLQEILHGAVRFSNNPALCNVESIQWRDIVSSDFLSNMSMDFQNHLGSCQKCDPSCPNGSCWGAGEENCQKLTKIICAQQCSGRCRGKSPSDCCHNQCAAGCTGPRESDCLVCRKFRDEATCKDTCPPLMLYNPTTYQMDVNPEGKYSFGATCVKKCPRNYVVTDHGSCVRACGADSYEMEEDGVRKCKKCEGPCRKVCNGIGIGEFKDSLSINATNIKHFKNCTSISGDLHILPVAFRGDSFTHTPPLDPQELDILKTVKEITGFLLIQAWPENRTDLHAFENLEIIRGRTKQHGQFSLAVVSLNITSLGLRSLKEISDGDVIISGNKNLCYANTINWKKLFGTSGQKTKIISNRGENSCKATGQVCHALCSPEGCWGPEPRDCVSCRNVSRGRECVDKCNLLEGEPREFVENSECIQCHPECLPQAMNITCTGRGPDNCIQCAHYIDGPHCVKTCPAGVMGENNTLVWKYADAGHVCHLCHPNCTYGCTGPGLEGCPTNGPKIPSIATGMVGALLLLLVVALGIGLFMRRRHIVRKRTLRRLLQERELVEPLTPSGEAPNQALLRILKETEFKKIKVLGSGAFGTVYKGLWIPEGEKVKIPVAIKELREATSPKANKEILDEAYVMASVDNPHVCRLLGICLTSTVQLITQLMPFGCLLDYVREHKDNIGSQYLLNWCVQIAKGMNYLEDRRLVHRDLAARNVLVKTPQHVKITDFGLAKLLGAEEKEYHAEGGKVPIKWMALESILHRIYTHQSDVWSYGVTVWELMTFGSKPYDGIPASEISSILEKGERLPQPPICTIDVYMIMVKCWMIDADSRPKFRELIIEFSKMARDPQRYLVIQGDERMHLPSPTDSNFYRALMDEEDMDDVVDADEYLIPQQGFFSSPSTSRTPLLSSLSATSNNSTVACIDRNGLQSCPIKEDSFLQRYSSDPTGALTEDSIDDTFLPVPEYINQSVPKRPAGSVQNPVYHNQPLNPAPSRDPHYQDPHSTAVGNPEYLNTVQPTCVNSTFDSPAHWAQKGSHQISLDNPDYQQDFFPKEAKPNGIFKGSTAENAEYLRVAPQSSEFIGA

IC50 (EGF Receptor): > 100 µM | IC50 (GST-Flk1): 6.51 µM
Compound: CN(C)S(=O)(=O)c1ccc2c(c1)C(=Cc1cc3ccccc3[nH]1)C(=O)N2 [IN-075, 3-(1H-indol-2-ylmethylene)-2-oxo-2,3-dihydro-1H-indole-5-sulfonic acid dimethylamide]
